Read-outs that look alike come from different tables or passages of the source.
Experiments:
[1] = log P by HPLC on reversed-phase column (C18), EEC directive 79/831 Annex V.A8; type: physicochemical; settings: for log p: data refer to the E isomer
Protocol: The log P values reported in the tables and Preparation Examples above were determined in accordance with EEC directive 79/831 Annex V.A8 by HPLC (High Performance Liquid Chromatography) using a reversed-phase column (C18). Temperature 43° C. The calibration is effected with unbranched alkan-2-ones (having 3 to 16 carbon atoms), for which the log P values are known.

[2] = tested on: Spodoptera frugiperda; experiment: Spodoptera frugiperda - spray test (SPODFR); type: in vivo; settings: application rate 100 g/ha, maize leaf disks
Protocol: Spodoptera frugiperda—Spray Test (SPODFR)
Solvent: 78.0 parts by weight of acetone • • 1.5 parts by weight of dimethylformamide
(§1) Emulsifier: 0.5 parts by weight of alkylaryl polyglycol ether
(§2) To produce a suitable active compound preparation, 1 part by weight of active compound is mixed with the stated amounts of solvent and emulsifier, and the concentrate is diluted with emulsifier-containing water to the desired concentration.
Leaf disks of maize (Zea mays) are sprayed with an active compound preparation of the desired concentration and, after drying, populated with caterpillars of the armyworm (Spodoptera frugiperda).
After the desired period of time, the efficacy in % is determined. 100% means that all the caterpillars have been killed; 0% means that no caterpillars have been killed.

[3] = tested on: Myzus persicae; experiment: Myzus persicae - spray test (MYZUPE); type: in vivo; settings: application rate 100 g/ha, Chinese cabbage leaf disks
Protocol: Myzus persicae—Spray Test (MYZUPE)
Solvent: 78 parts by weight of acetone • • 1.5 parts by weight of dimethylformamide
as §1, §2
Disks of Chinese cabbage leaves (Brassica pekinensis) infested by all stages of the green peach aphid (Myzus persicae) are sprayed with an active compound preparation of the desired concentration.
After the desired period of time, the efficacy in % is determined. 100% means that all the aphids have been killed; 0% means that none of the aphids have been killed.

[4] = reversed-phase HPLC column (C18), HPLC-MS data in the preparation text, HPLC reversed-phase C18, 43° C., read-out: log P
[5] = Table A, HPLC reversed-phase C18, 43° C.
[6] = Table B, HPLC reversed-phase C18, 43° C.
[7] = Table C, HPLC reversed-phase C18, 43° C.

Compound | log p [1, 5] | efficacy (caterpillars killed) [2] | efficacy (aphids killed) [3] | also measured
CON=Cc1cc(C)c2nc(-c3cc(OC(F)F)nn3-c3ncccc3Cl)oc(=O)c2c1 [2-[1-(3-Chloropyridin-2-yl)-3-(difluoromethoxy)-1H-pyrazol-5-yl]-8-methyl-4-oxo-4H-3,1-benzoxazine-6-carbaldehyde O-methyl oxime] |  |  |  | chromatographic logP [1, 4]: 3.93
CO/N=C/c1cc(C)c(NC(=O)c2cc(OC(F)F)nn2-c2ncccc2Cl)c(C(=O)NN)c1 [1-(3-Chloropyridin-2-yl)-3-(difluoromethoxy)-N-{2-(hydrazinocarbonyl)-4-[(E)-(methoxyimino)methyl]-6-methylphenyl}-1H-pyrazole-5-carboxamide] |  |  |  | chromatographic logP ([1]; log P): 2.12
CCOC(=O)NN(C)C(=O)c1cc(C=NOC)cc(C)c1NC(=O)c1cc(C(F)(F)F)nn1-c1ncccc1Cl [A-24] | 3.31 | 100% |  | 
CON=Cc1cc(C)c(NC(=O)c2cc(Br)nn2-c2ncccc2Cl)c(C(=O)N(C)NC(=O)Oc2ccccc2)c1 [A-05] | 3.46 | 100% | 100% | 
CON=Cc1cc(C)c(NC(=O)c2cc(OC(C)C)nn2-c2ncccc2Cl)c(C(=O)NC2COC2)c1 (mixture of isomers) [B-07] |  | 100% |  | log p [1, 6]: 2.57
COCC(C)NC(=O)c1cc(C=NOC)cc(C)c1NC(=O)c1cc(OCC(F)F)nn1-c1ncccc1Cl (centres unmarked) [C-39] |  | 100% | 100% | log p [1, 7]: 2.93
C=CCOC(=O)NN(C)C(=O)c1cc(C=NOC)cc(C)c1NC(=O)c1cc(Br)nn1-c1ncccc1Cl [A-07] | 3.12 | 100% |  | 
O=C(O)c1cc(CF)nn1-c1ncccc1Cl [1-(3-Chloropyridin-2-yl)-3-(fluoromethyl)-1H-pyrazole-5-carboxylic acid] |  |  |  | chromatographic logP [1, 4]: 1.03
CON=Cc1cc(C)c(NC(=O)c2cc(Br)nn2-c2ncccc2Cl)c(C(=O)N(NS(C)(=O)=O)S(C)(=O)=O)c1 [A-12] | 2.99 | 100% |  | 
CON=Cc1cc(C)c(NC(=O)c2cc(OCC(F)F)nn2-c2ncccc2Cl)c(C(=O)N(C)C)c1 [C-38] |  | 100% |  | log p [1, 7]: 2.61
CCOC(=O)c1cc(OCC(F)F)nn1-c1ncccc1Cl [Ethyl 1-(3-chloropyridin-2-yl)-3-(2,2-difluoroethoxy)-1H-pyrazole-5-carboxylate] |  |  |  | chromatographic logP [1, 4]: 2.74
CO/N=C/c1cc(C)c(N)c(C(=O)O)c1 [VIII-1, 2-Amino-5-[(E)-(methoxyimino)methyl]-3-methylbenzoic acid] |  |  |  | chromatographic logP [1, 4]: 1.73
CON=Cc1cc(C)c(NC(=O)c2cc(OC)nn2-c2ncccc2Cl)c(C(=O)NNC(=O)OC)c1 (mixture of isomers) [A-40] | 2.45 | 100% | 90% | 
COC(=O)c1cc(CF)nn1-c1ncccc1Cl [Methyl 1-(3-chloropyridin-2-yl)-3-(fluoromethyl)-1H-pyrazole-5-carboxylate] |  |  |  | chromatographic logP [1, 4]: 1.9
CON=Cc1cc(C)c(NC(=O)c2cc(OCC(F)F)nn2-c2ncccc2Cl)c(C(=O)NC2COC2)c1 (mixture of isomers) [B-09] |  | 100% | 100% | log p [1, 6]: 2.44
CON=Cc1cc(C)c(NC(=O)c2cc(Br)nn2-c2ncccc2Cl)c(C(=O)N(C)NC(C)=O)c1 [A-14] | 2.31 | 100% | 90% | 
O=C(O)c1cc(OCc2ccc(C(F)(F)F)nc2)nn1-c1ncccc1Cl [1-(3-chloropyridin-2-yl)-3-{[6-(trifluoromethyl)pyridin-3-yl]methoxy}-1H-pyrazole-5-carboxylic acid] |  |  |  | chromatographic logP [1, 4]: 1.59
CON=Cc1cc(C)c(NC(=O)c2cc(C(F)(F)F)nn2-c2ncccc2Cl)c(C(=O)NC2CS(=O)(=O)C2)c1 (mixture of isomers) [B-04] |  | 100% | 90% | log p [1, 6]: 2.78
CON=Cc1cc(C)c(NC(=O)c2cc(CF)nn2-c2ncccc2Cl)c(C(=O)N(C)C)c1 [C-55] |  | 100% |  | log p [1, 7]: 2.19

Compound | log p [1, 5] | efficacy (caterpillars killed) [2] | efficacy (aphids killed) [3] | also measured
CON=Cc1cc(C)c(NC(=O)c2cc(OCC(F)F)nn2-c2ncccc2Cl)c(C(=O)NNC(=O)OC)c1 (mixture of isomers) [A-37] | 2.37 | 100% | 100% | 
CON=Cc1cc(C)c2nc(-c3cc(OCC(F)F)nn3-c3ncccc3Cl)oc(=O)c2c1 [2-[1-(3-Chloropyridin-2-yl)-3-(2,2-difluoroethoxy)-1H-pyrazol-5-yl]-8-methyl-4-oxo-4H-3,1-benzoxazine-6-carbaldehyde O-methyl oxime] |  |  |  | chromatographic logP [1, 4]: 3.92
CCOC(=O)NN(C)C(=O)c1cc(C=NOC)cc(C)c1NC(=O)c1cc(Br)nn1-c1ncccc1Cl [A-10] | 2.97 | 100% | 90% | 
C=CCOC(=O)NN(C)C(=O)c1cc(C=NOC)cc(C)c1NC(=O)c1cc(C(F)(F)F)nn1-c1ncccc1Cl [A-28] | 3.41 | 100% |  | 
CON=Cc1cc(C)c(NC(=O)c2cc(C(F)(F)F)nn2-c2ncccc2Cl)c(C(=O)N(C)NC(C)=O)c1 [A-30] | 2.75 | 100% |  | 
COCC(C)NC(=O)c1cc(C=NOC)cc(C)c1NC(=O)c1cc(CF)nn1-c1ncccc1Cl (centres unmarked) [C-54] |  | 100% | 90% | log p [1, 7]: 2.47
CON=Cc1cc(C)c(NC(=O)c2cc(OC)nn2-c2ncccc2Cl)c(C(=O)N(C)C)c1 [C-40] |  |  |  | log p [1, 7]: 2.16
COCCOC(=O)NN(C)C(=O)c1cc(C=NOC)cc(C)c1NC(=O)c1cc(C(F)(F)F)nn1-c1ncccc1Cl [A-27] | 3.05 | 100% |  | 
COCCOC(=O)NN(C)C(=O)c1cc(C=NOC)cc(C)c1NC(=O)c1cc(Br)nn1-c1ncccc1Cl [A-13] | 2.72 | 100% | 90% | 
CC(C)Oc1cc(C(=O)O)n(-c2ncccc2Cl)n1 [1-(3-chloropyridin-2-yl)-3-isopropoxy-1H-pyrazole-5-carboxylic acid] |  |  |  | chromatographic logP [1, 4]: 1.76
CON=Cc1cc(C)c(NC(=O)c2cc(C(F)F)nn2-c2ncccc2Cl)c(C(=O)N(C)C)c1 [C-61] |  | 100% |  | log p [1, 7]: 2.47
O=C(O)c1cc(OCC(F)F)nn1-c1ncccc1Cl [1-(3-Chloropyridin-2-yl)-3-(2,2-difluoroethoxy)-1H-pyrazole-5-carboxylic acid] |  |  |  | chromatographic logP [1, 4]: 1.59
CON=Cc1cc(C)c(NC(=O)c2cc(Br)nn2-c2ncccc2Cl)c(C(=O)NNS(C)(=O)=O)c1 [A-09] | 2.30 | 100% | 90% | 
CCOc1cc(C(=O)O)n(-c2ncccc2Cl)n1 [1-(3-chloropyridin-2-yl)-3-ethoxy-1H-pyrazole-5-carboxylic acid] |  |  |  | chromatographic logP [1, 4]: 1.47
CON=Cc1cc(C)c(NC(=O)c2cc(Br)nn2-c2ncccc2Cl)c(C(=O)N(C)NC(=O)OC(C)C)c1 [A-16] | 3.28 | 100% |  | 
CON=Cc1cc(C)c(NC(=O)c2cc(OCC(F)F)nn2-c2ncccc2Cl)c(C(=O)NC(C)C2CC2)c1 (centres unmarked) [C-18] |  | 100% | 90% | log p [1, 7]: 3.39
CON=Cc1cc(C)c(NC(=O)c2cc(Br)nn2-c2ncccc2Cl)c(C(=O)N(NC(C)=O)C(C)=O)c1 [A-11] | 2.67 | 100% | 100% | 
CON=Cc1cc(C)c(NC(=O)c2cc(Br)nn2-c2ncccc2Cl)c(C(=O)NNC(=O)Oc2ccccc2)c1 [A-15] | 3.03 | 100% | 90% | 
Cc1cc(C=O)cc(C(=O)O)c1N [IX-1, 2-Amino-5-formyl-3-methylbenzoic acid] |  |  |  | chromatographic logP [1, 4]: 1.02

Reference: patent US9609868B2, “Alkoximino-substituted anthranilic acid diamides as pesticides” (BAYER CROPSCIENCE AKTIENGESELLSCHAFT, priority 2013, dated 2017)
